The values that follow come from US9751837B2, “Kinase inhibitors” (RESPIVERT LIMITED, priority 2014, dated 2017).

Converted amounts (≈) assume the structure as drawn.

Series [1] can be described thus: Solubility in fasted-state simulated colonic fluid (FaSSCoF) at pH 6.5. The series is classed as physicochemical. To be noted: 25 °C, pH 6.5, fassgf or other biorelevant, thermodynamic from solid. The method, boiled down:
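Compounds were suspended at up to 2-10 mg/mL in pH 6.5 Tris/maleate FaSSCoF containing a five-bile-acid mixture, phosphatidylcholine, palmitic acid and BSA. After 24 h equilibration at 25° C the suspension was filtered and the filtrate quantified by HPLC peak area against a standard.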

For series [2], the system named is Jurkat cells. As to the kind of experiment: Cell cytotoxicity assay (r). It counts as cell-based, human. The settings on record: 24 hours. Here is the method: 1×10^5 Jurkat cells (immortalised human T lymphocytes) are added to the appropriate number of wells of a 96 well plate in 100 μL of media (RPMI supplemented with 10% foetal bovine serum). 1 μL of DMSO control (final concentration 1.0% v/v) or test compound (final concentration 20, 5 or 1 μg/mL) is added to the wells and incubated at 37° C., 5% CO2. After 24 hours, the plate is centrifuged at 1200 rpm for 3 minutes and the supernatant discarded. Cells are then resuspended in 150 μL (final concentration 7.5 μg/mL) of propidium iodide (PI) in PBS and incubated at 37° C., 5% CO2 for 15 minutes. After 15 minutes, cells are analysed by flow cytometry (BD accuri) using the FL3 window. The % viability is calculated as the % of cells that are PI negative in the test wells normalised to the DMSO control.

Where [3] appears, read: pH 6.5 FaSSCoF Solubility (mg/mL) Run 1.
[4] abbreviates: pH 6.5 FaSSCoF Solubility (mg/mL) Run 2.

As to `COc1cc(Nc2nccc(Oc3ccc(NC(=O)Nc4cc(C(C)(C)C)cc(NS(C)(=O)=O)c4OC)c4ccccc34)n2)ccc1C(=O)NCCC1CCN(C)CC1` [17(an), 4-((4-((4-(3-(5-(tert-butyl)-2-methoxy-3-(methylsulfonamido)phenyl)ureido)naphthalen-1-yl)oxy)pyrimidin-2-yl)amino)-2-methoxy-N-(2-(1-methylpiperidin-4-yl)ethyl)benzamide], the values for the thermodynamic solubility at 24 h in series [1] (setting [3]) and in series [1] (setting [4]) were 47 µg/mL (≈ 57 µM) and 49 µg/mL (≈ 59.4 µM), respectively. For the same compound, the “% Viability at 20 μg/mL” value in series [2] amounted to 1.1%.
In the case of `COc1cc(Nc2nccc(Oc3ccc(NC(=O)Nc4cc(C(C)(C)C)cc(NS(C)(=O)=O)c4OC)c4ccccc34)n2)ccc1C(=O)NCCCN1CCOCC1` [17(ao), 4-((4-((4-(3-(5-(tert-Butyl)-2-methoxy-3-(methylsulfonamido)phenyl)ureido)naphthalen-1-yl)oxy)pyrimidin-2-yl)amino)-2-methoxy-N-(3-morpholinopropyl)benzamide], the solubility (thermodynamic) at 24 h in series [1] (setting [3]) and in series [1] (setting [4]) was 9 µg/mL (≈ 10.9 µM) throughout. Further, the “% Viability at 20 μg/mL” value in series [2] was 1.6%.
For the compound `COc1cc(Nc2nccc(Oc3ccc(NC(=O)Nc4cc(C(C)(C)C)cc(NS(C)(=O)=O)c4OC)c4ccccc34)n2)ccc1C(=O)NCCCN1CCN(C)CC1` [17(ap), 4-((4-((4-(3-(5-(tert-Butyl)-2-methoxy-3-(methylsulfonamido)phenyl)ureido)naphthalen-1-yl)oxy)pyrimidin-2-yl)amino)-2-methoxy-N-(3-(4-methylpiperazin-1-yl)propyl)benzamide], the solubility (thermodynamic) at 24 h in series [1] (setting [3]) and in series [1] (setting [4]) was less than 1 µg/mL throughout. Besides, in series [2], the “% Viability at 20 μg/mL” value is given as 0.6%.
As to `COc1cc(Nc2nccc(Oc3ccc(NC(=O)Nc4cc(C(C)(C)C)cc(NS(C)(=O)=O)c4OC)c4ccccc34)n2)ccc1C(=O)NCCN1CCN(C)CC1` [17(aq), 4-((4-((4-(3-(5-(tert-Butyl)-2-methoxy-3-(methylsulfonamido)phenyl)ureido)naphthalen-1-yl)oxy)pyrimidin-2-yl)amino)-2-methoxy-N-(2-(4-methylpiperazin-1-yl)ethyl)benzamide], the solubility (thermodynamic) at 24 h in series [1] (setting [3]) and in series [1] (setting [4]) was less than 1 µg/mL each time. In addition, the “% Viability at 5 μg/mL” value in series [2] (5 μg/mL) amounted to 0.2%. Besides, the “% Viability at 20 μg/mL” value in series [2] worked out at 1.3%.
With `COc1cc(Nc2cc(Oc3ccc(NC(=O)Nc4cc(C(C)(C)C)cc(NS(C)(=O)=O)c4OC)c4ccccc34)ccn2)cc(OC)c1C(=O)NCCCN1CCN(C)CC1` [17(au), 4-((4-((4-(3-(5-(tert-Butyl)-2-methoxy-3-(methylsulfonamido)phenyl)ureido)naphthalen-1-yl)oxy)pyridin-2-yl)amino)-2,6-dimethoxy-N-(3-(4-methylpiperazin-1-yl)propyl)benzamide], the results for the thermodynamic solubility at 24 h in series [1] (setting [3]) and in series [1] (setting [4]) were 32 µg/mL (≈ 36.8 µM) and 23 µg/mL (≈ 26.5 µM), respectively. In addition, the “% Viability at 1 μg/mL” value in series [2] (1 μg/mL) amounted to 94.0%.
On to `COc1cc(Nc2nccc(Oc3ccc(NC(=O)Nc4cc(C(C)(C)C)cc(NS(C)(=O)=O)c4OC)c4ccccc34)n2)cc(OC)c1C(=O)NCCN1CCN(C)CC1` [17(az), 4-((4-((4-(3-(5-(tert-Butyl)-2-methoxy-3-(methylsulfonamido)phenyl)ureido)naphthalen-1-yl)oxy)pyrimidin-2-yl)amino)-2,6-dimethoxy-N-(2-(4-methylpiperazin-1-yl)ethyl)benzamide], for which the solubility (thermodynamic) at 24 h in series [1] (setting [3]) and in series [1] (setting [4]) was 1 µg/mL (≈ 1.17 µM) throughout. Besides, the “% Viability at 20 μg/mL” value in series [2] is recorded as 4.5%.
For `COc1cc(Nc2cc(Oc3ccc(NC(=O)Nc4cc(C(C)(C)C)cc(C(=O)NCCO)c4OC)c4ccccc34)ccn2)ccc1C(=O)NCCN1CC[S+]([O-])CC1` [Example 32, 5-(tert-Butyl)-N-(2-hydroxyethyl)-2-methoxy-3-(3-(4-((2-((3-methoxy-4-((2-(1-oxidothiomorpholino)ethyl)carbamoyl)phenyl)amino)pyridin-4-yl)oxy)naphthalen-1-yl)ureido)benzamide], the “% Viability at 20 μg/mL” value in series [2] worked out at 2.5%.
